# Reference: ChEMBL document CHEMBL3112456, “Dual inhibition of HCV and HIV by ring-expanded nucleosides containing the 5:7-fused imidazo[4,5-e][1,3]diazepine ring system. In vitro results and implications” (Bioorg Med Chem Lett, 2014)
# Calls of active or inactive are those of the source. The rule behind the calls is not given here.
# Legend:
# [1] = Inhibition of helicase activity of HCV NTPase/helicase using radio-labelled double-stranded DNA as substrate after 30 mins; design: species or system Hepacivirus hominis
# Hepacivirus hominis [2] = experiment: Inhibition of helicase activity of HCV NTPase/helicase using radio-labelled double-stranded RNA as substrate after 30 mins
# Huh-7 = experiment: Cytotoxicity against human HuH7 cells assessed as beta-actin levels relative to control; assay type: cell-based
# Hepatitis C virus [3] = experiment: Antiviral activity against HCV infected in human Huh7 cells assessed as reduction in RNA level by luciferase reporter gene assay relative to control; assay type: functional, Hepacivirus hominis, Huh-7; design: scale not given: the % may be the effect or the level left
# [4] = Cytotoxicity against human BM4-5 cells after 5 days by Neutral Red dye assay; assay type: cell-based; conditions: bm4-5, 120 h
# Hepatitis C virus [5] = experiment: Antiviral activity against HCV genotype 1b infected in human BM4-5 cells reduction in RNA level after 5 days by luciferase reporter gene assay relative to control; assay type: functional, organism-based, Hepacivirus hominis; conditions: BM4-5, 120 h
# Hepacivirus hominis [6] = experiment: Inhibition of NTPase activity of HCV NTPase/helicase using 105 microM gamma-[32P]ATP as substrate up to 0.7 mM after 30 mins
# [7] = Selectivity index, ratio of beta-actin level in human HuH7 cells to viral RNA level in HCV infected in human Huh7 cells; design: species or system Huh-7
# Hepacivirus hominis [8] = experiment: Inhibition of NTPase activity of HCV NTPase/helicase using 1 x 10^-5 M gamma-[32P]ATP as substrate up to 0.7 mM after 30 mins
# Hepacivirus hominis [9] = experiment: Inhibition of helicase activity of HCV NTPase/helicase using radio-labelled double-stranded DNA as substrate up to 300 ug/ml after 30 mins
# Hepacivirus hominis [10] = experiment: Inhibition of helicase activity of HCV NTPase/helicase using radio-labelled double-stranded RNA as substrate up to 300 ug/ml after 30 mins
# [11] = tested on: Human immunodeficiency virus; experiment: Antiviral activity against HIV; assay type: functional, organism-based
smiles,measurement,setting,value
CCCCCCCCCCCCCCCCCCNc1nc(=O)c2ncn([C@@H]3O[C@H](CO)[C@@H](O)[C@H]3O)c2c(=O)[nH]1,IC50,[1],6 µg/mL
same,inhibition,Hepacivirus hominis [2],Active
same,Activity,Huh-7,98%
same,Activity,Hepatitis C virus [3],9%
same,Activity,[4],Non-toxic
same,IC50,Hepatitis C virus [5],16 µM
same,inhibition,Hepacivirus hominis [6],inactive
same,Selectivity Index,[7],10.89
same,inhibition,Hepacivirus hominis [8],inactive
CCCCCCCCCCNc1nc(=O)c2ncn([C@@H]3O[C@H](CO)[C@@H](O)[C@H]3O)c2c(=O)[nH]1,inhibition,Hepacivirus hominis [9],inactive
same,inhibition,Hepacivirus hominis [10],inactive
CCCCCCCCCCCCCCNc1nc(=O)c2ncn([C@@H]3C[C@H](O)[C@@H](CO)O3)c2c(=O)[nH]1,inhibition,Hepacivirus hominis [9],inactive
same,inhibition,Hepacivirus hominis [10],inactive
CCCCCCCCNc1nc(=O)c2ncn([C@@H]3C[C@H](O)[C@@H](CO)O3)c2c(=O)[nH]1,inhibition,Hepacivirus hominis [9],inactive
same,inhibition,Hepacivirus hominis [10],inactive
CCCCCCCCCCCCCCN,Activity,"Hepatitis C virus [3]; Hepacivirus hominis, Huh-7",inactive
same,Activity,[11],inactive
NC(=O)c1ncn([C@@H]2O[C@H](CO)[C@@H](O)[C@H]2O)n1 [RIBAVIRIN],Activity,Huh-7,12%
same,Activity,Hepatitis C virus [3],89%
same,Selectivity Index,[7],0.14
CCCCCCCCCCCCCCCCCCNc1nc(=O)c2ncn([C@@H]3C[C@H](O)[C@@H](CO)O3)c2c(=O)[nH]1,IC50,[1],5.5 µg/mL
same,inhibition,Hepacivirus hominis [2],Active
same,Activity,Huh-7,99%
same,Activity,Hepatitis C virus [3],10%
same,Activity,[4],Non-toxic
same,IC50,Hepatitis C virus [5],18 µM
same,inhibition,Hepacivirus hominis [6],inactive
same,Selectivity Index,[7],9.9
same,inhibition,Hepacivirus hominis [8],inactive
CCCCCCCCCCCCCCCCCCN,Activity,"Hepatitis C virus [3]; Hepacivirus hominis, Huh-7",inactive
same,Activity,[11],inactive
CCCCCCCCCCNc1nc(=O)c2ncn([C@@H]3C[C@H](O)[C@@H](CO)O3)c2c(=O)[nH]1,inhibition,Hepacivirus hominis [9],inactive
same,inhibition,Hepacivirus hominis [10],inactive
CCCCCCCCCCCCNc1nc(=O)c2ncn([C@@H]3O[C@H](CO)[C@@H](O)[C@H]3O)c2c(=O)[nH]1,inhibition,Hepacivirus hominis [9],inactive
same,inhibition,Hepacivirus hominis [10],inactive
CCCCCCCCNc1nc(=O)c2ncn([C@@H]3O[C@H](CO)[C@@H](O)[C@H]3O)c2c(=O)[nH]1,inhibition,Hepacivirus hominis [9],inactive
same,inhibition,Hepacivirus hominis [10],inactive
CCCCCCCCCCCCCCNc1nc(=O)c2ncn([C@@H]3O[C@H](CO)[C@@H](O)[C@H]3O)c2c(=O)[nH]1,inhibition,Hepacivirus hominis [9],inactive
same,inhibition,Hepacivirus hominis [10],inactive
CCCCCCCCCCCCCCCCNc1nc(=O)c2ncn([C@@H]3O[C@H](CO)[C@@H](O)[C@H]3O)c2c(=O)[nH]1,inhibition,Hepacivirus hominis [9],inactive
same,inhibition,Hepacivirus hominis [10],inactive
CCCCCCCCCCCCCCCCNc1nc(=O)c2ncn([C@@H]3C[C@H](O)[C@@H](CO)O3)c2c(=O)[nH]1,inhibition,Hepacivirus hominis [9],inactive
same,inhibition,Hepacivirus hominis [10],inactive
